Tested on: 282377-053-R-J1-PDC complex spheroid viability
Assay: Anticancer human tumor 282377-053-R-J1-PDC patient-derived colon adenocarcinoma cell line growth inhibition [POLQ]
Conditions: for IC50: curve of first compound; for viability, T/C: stronger effect = lower value; active = viability on the fitted dose curve at most 10% of control; inactive = the rest
Procedure, shortened: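 Patient-derived tumour cells were co-cultured with HUVEC and mesenchymal stem cells as multicellular spheroids at 37 °C. They were treated with POLQ inhibitors (novobiocin, ART-558, RP6685) alone or combined with other agents. Top concentrations were at or near clinical Cmax (otherwise 10 microM; SN-38 at 1 microM), decreasing in half-log steps.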

[1] = second compound 0.0316 µM, first compound 0.0316 µM
[2] = second compound 0.0316 µM, first compound 0.1 µM
[3] = second compound 0.0316 µM, first compound 0.316 µM
[4] = second compound 0.0316 µM, first compound 1 µM
[5] = second compound 0.1 µM, first compound 0.0316 µM
[6] = second compound 0.1 µM, first compound 0.1 µM
[7] = second compound 0.1 µM, first compound 0.316 µM
[8] = second compound 0.1 µM, first compound 1 µM
[9] = second compound 0.316 µM, first compound 0.0316 µM
[10] = second compound 0.316 µM, first compound 0.1 µM
[11] = second compound 0.316 µM, first compound 0.316 µM
[12] = second compound 0.316 µM, first compound 1 µM
[13] = second compound 1 µM, first compound 0.0316 µM
[14] = second compound 1 µM, first compound 0.1 µM
[15] = second compound 1 µM, first compound 0.316 µM
[16] = second compound 1 µM, first compound 1 µM
[17] = second compound 3.16 µM, first compound 0.0316 µM
[18] = second compound 3.16 µM, first compound 0.1 µM
[19] = second compound 3.16 µM, first compound 0.316 µM
[20] = second compound 3.16 µM, first compound 1 µM
[21] = second compound 10 µM, first compound 0.0316 µM
[22] = second compound 10 µM, first compound 0.1 µM
[23] = second compound 10 µM, first compound 0.316 µM
[24] = second compound 10 µM, first compound 1 µM
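Also: spheroids exposed to compounds for seven days.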
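For viability, T/C in this document: 100% = DMSO vehicle control viability.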

CC(C)n1c(=O)n(C)c2cnc3cc(F)c(-c4ccc(OCCCN5CCCCC5)nc4)cc3c21 + Cc1cccc(N(C)C(=O)C2C(O)CCN2c2nc(C)cc(C(F)(F)F)c2C#N)c1
inactive: viability, T/C [1] 97.8% | viability, T/C [2] 129% | viability, T/C [3] 99% | viability, T/C [4] 114% | viability, T/C (second compound 0.0316 µM, first compound 3.16 µM) 109% | viability, T/C (second compound 0.0316 µM, first compound 10 µM) 88.3% | viability, T/C [5] 95.2% | viability, T/C [6] 123% | viability, T/C [7] 98.2% | viability, T/C [8] 97.5% | viability, T/C (second compound 0.1 µM, first compound 3.16 µM) 129% | viability, T/C (second compound 0.1 µM, first compound 10 µM) 84.8% | viability, T/C [9] 99.6% | viability, T/C [10] 92.3% | viability, T/C [11] 96% | viability, T/C [12] 89.5% | viability, T/C (second compound 0.316 µM, first compound 3.16 µM) 99.1% | viability, T/C (second compound 0.316 µM, first compound 10 µM) 73.8% | viability, T/C [13] 105% | viability, T/C [14] 99.8% | viability, T/C [15] 97.7% | viability, T/C [16] 105% | viability, T/C (second compound 1 µM, first compound 3.16 µM) 106% | viability, T/C (second compound 1 µM, first compound 10 µM) 93.2% | viability, T/C [17] 81.5% | viability, T/C [18] 102% | viability, T/C [19] 96.4% | viability, T/C [20] 98.9% | viability, T/C (second compound 3.16 µM, first compound 3.16 µM) 97.1% | viability, T/C (second compound 3.16 µM, first compound 10 µM) 92.7% | viability, T/C [21] 93.2% | viability, T/C [22] 87.3% | viability, T/C [23] 110% | viability, T/C [24] 81.9% | viability, T/C (second compound 10 µM, first compound 3.16 µM) 120% | viability, T/C (second compound 10 µM, first compound 10 µM) 82.1%
> 10 µM: IC50 (second compound 0.0316 µM) | IC50 (second compound 0.1 µM) | IC50 (second compound 0.316 µM) | IC50 (second compound 1 µM) | IC50 (second compound 3.16 µM) | IC50 (second compound 10 µM)

C=CCn1c(=O)c2cnc(Nc3ccc(N4CCN(C)CC4)cc3)nc2n1-c1cccc(C(C)(C)O)n1 + Cc1cccc(N(C)C(=O)C2C(O)CCN2c2nc(C)cc(C(F)(F)F)c2C#N)c1
> 1 µM: IC50 (second compound 0.0316 µM) | IC50 (second compound 0.1 µM) | IC50 (second compound 0.316 µM) | IC50 (second compound 1 µM) | IC50 (second compound 3.16 µM) | IC50 (second compound 10 µM)
inactive: viability, T/C (second compound 0.0316 µM, first compound 0.00316 µM) 106% | viability, T/C (second compound 0.0316 µM, first compound 0.01 µM) 107% | viability, T/C [1] 107% | viability, T/C [2] 96.9% | viability, T/C [3] 93.6% | viability, T/C [4] 76.6% | viability, T/C (second compound 0.1 µM, first compound 0.00316 µM) 95.6% | viability, T/C (second compound 0.1 µM, first compound 0.01 µM) 110% | viability, T/C [5] 94.3% | viability, T/C [6] 102% | viability, T/C [7] 92.2% | viability, T/C [8] 68.4% | viability, T/C (second compound 0.316 µM, first compound 0.00316 µM) 107% | viability, T/C (second compound 0.316 µM, first compound 0.01 µM) 103% | viability, T/C [9] 96.8% | viability, T/C [10] 91.1% | viability, T/C [11] 90.6% | viability, T/C [12] 71.8% | viability, T/C (second compound 1 µM, first compound 0.00316 µM) 109% | viability, T/C (second compound 1 µM, first compound 0.01 µM) 97% | viability, T/C [13] 94.8% | viability, T/C [14] 89.1% | viability, T/C [15] 89.2% | viability, T/C [16] 73% | viability, T/C (second compound 3.16 µM, first compound 0.00316 µM) 104% | viability, T/C (second compound 3.16 µM, first compound 0.01 µM) 102% | viability, T/C [17] 102% | viability, T/C [18] 93.2% | viability, T/C [19] 98.3% | viability, T/C [20] 70.2% | viability, T/C (second compound 10 µM, first compound 0.00316 µM) 99.9% | viability, T/C (second compound 10 µM, first compound 0.01 µM) 103% | viability, T/C [21] 93.7% | viability, T/C [22] 98.9% | viability, T/C [23] 94.3% | viability, T/C [24] 85.4%

Source: PubChem BioAssay AID1963852 (Molecular Pharmacology Branch, DTP, NCI, 2024)
